{
  "source": "patent US10017468B2",
  "about": "“Substituted pyrrolidines as G-protein coupled receptor 43 agonists” (Ogeda SA, priority 2009, dated 2018)",
  "tested_on": "ob/ob mice",
  "experiment": "Oral glucose tolerance test (OGTT) in ob/ob mice",
  "format": "in vivo",
  "conditions": "bi-daily 50 mg/kg during 28 days, AUC from -15 to 120 min",
  "protocol": "Ob/ob or obese mice are leptin-deficient mice that eat excessively and become profoundly obese, hyperinsulinemic and hyperglycemic. It is an animal model of type II diabetes. Such model can be used for oral glucose tolerance tests (OGTTs). A total of sixteen (16) male ob/ob mice (6 weeks of age) were obtained from Harlan. Upon arrival to the animal unit, mice were housed 4 per cage in rodent cages mounted with feeders containing regular chow. The mice were put in a 12/12 h light-dark cycle (light from 0600-1800 h) with controlled temperature conditions (22-24° C.). Fed blood glucose and body-weight was measured on day −2 in the morning between 08:00 AM and 09:00 AM. Animals were randomized into 2 groups according to fed glucose levels (on day −2). […]\nDay 1 is the first day of dosing. […] At −15 min, blood glucose was measured (using a glucose analyzer) and animals were dosed with compounds of the invention or vehicle. At time point 0, blood glucose was measured again and glucose was administered by oral gavage (1 g/kg glucose). The blood glucose was then measured at time points 15, 30, 45, 60 and 120 minutes. […] The percentages of AUC inhibition induced by compounds of the invention were calculated as follows: % of AUC inhibition: [1−(AUC compound/AUC vehicule)]*100.",
  "data": [
    {"smiles": "COc1ccccc1-c1ccc(C(=O)N2[C@@H](c3ccccc3Cl)CC[C@H]2C(=O)O)cc1", "note": "[Compound 1, (2S,5R)-5-(2-chlorophenyl)-1-(2′-methoxy-[1,1′-biphenyl]-4-carbonyl)pyrrolidine-2-carboxylic acid]", "values": [
      {"measurement": "% of AUC inhibition (blood glucose, OGTT)", "value": 40, "unit": "%"}
    ]}
  ]
}
